Data from PMC10282079, “Design, synthesis, in vitro anti-α-glucosidase evaluations, and computational studies of new phthalimide-phenoxy-1,2,3-triazole-N-phenyl (or benzyl) acetamides as potential anti-diabetic agents” (Scientific Reports, 2023).

Tests used:
yeast α-glucosidase = target: T1, yeast α-glucosidase (Saccharomyces cerevisiae, UniProt P53341); experiment: biochemical; type: biochemical; details: for IC50: yeast α-glucosidase, mean ± SD of three independent experiments; for α-glucosidase inhibitory activity in words: SAR discussion of Table 1
T1 construct: purchased Sigma-Aldrich
T1 sequence (P53341 whole entry): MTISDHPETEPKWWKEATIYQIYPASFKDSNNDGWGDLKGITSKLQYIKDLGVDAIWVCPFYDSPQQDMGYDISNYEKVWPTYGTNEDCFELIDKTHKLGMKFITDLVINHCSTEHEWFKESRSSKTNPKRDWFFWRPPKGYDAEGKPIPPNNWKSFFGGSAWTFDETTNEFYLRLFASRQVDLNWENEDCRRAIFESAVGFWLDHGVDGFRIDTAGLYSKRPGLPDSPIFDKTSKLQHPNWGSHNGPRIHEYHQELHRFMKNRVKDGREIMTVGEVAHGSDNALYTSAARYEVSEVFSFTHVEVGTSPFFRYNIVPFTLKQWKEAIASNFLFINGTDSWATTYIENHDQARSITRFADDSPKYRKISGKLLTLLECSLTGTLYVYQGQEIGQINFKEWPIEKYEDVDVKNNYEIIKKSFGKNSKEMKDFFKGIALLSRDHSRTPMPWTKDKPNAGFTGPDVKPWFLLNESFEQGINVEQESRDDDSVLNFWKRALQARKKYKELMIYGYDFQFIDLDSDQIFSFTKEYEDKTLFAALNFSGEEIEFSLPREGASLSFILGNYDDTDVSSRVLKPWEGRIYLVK
Description: The in vitro enzymatic inhibitory activity of phthalimide-phenoxy-1,2,3-triazole-N-phenyl (or benzyl) acetamide 11a–n was evaluated against yeast α-glucosidase.
The change in absorbance was measured at 405 nm using by a standard spectrophotometer (Gen5, Power wave xs2, BioTek, America).

α-glucosidase = target: T2, α-glucosidase (Saccharomyces cerevisiae, UniProt P53341); experiment: Kinetic study of α-glucosidase inhibition (Lineweaver–Burk); type: biochemical
T2 construct: purchased Sigma-Aldrich
T2 sequence (P53341 whole entry): as above
Description: For this purpose, the reaction rates in the presence of different concentrations of compound 11j were measured in various concentrations of substrate (p-nitrophenyl-a-D-glucopyranoside). Graphs of different concentrations of inhibitor were drawn by the Lineweaver–Burk plot (Fig. 2a). […] The Ki value was calculated directly by plotting the slope of each line in the Lineweaver–Burk plots into the different concentrations of compound 11j (Fig. 2b).
The 20 µL of α-glucosidase solution (1 U/mL) was incubated with different concentrations of compound 11j (0, 12, 23 and 46 µM) for 15 min at 30 °C. The reaction was then started by adding different concentrations of substrate (1–10 mM) and change in absorbance was measured for 20 min at 405 nm using by spectrophotometer (Gen5, Power wave xs2, BioTek, America).

IC50 (yeast α-glucosidase)	SMILES	melting point	Fold less potent than compound 11a (yeast α-glucosidase; ratio of IC50 values)	α-glucosidase inhibitory activity in words (yeast α-glucosidase)	Inhibition mode (α-glucosidase; Lineweaver–Burk plot)	Ki (α-glucosidase; secondary re-plot of Lineweaver–Burk slopes, substrate p-nitrophenyl-a-D-glucopyranoside)
203.8 ± 0.32 µM	O=C(Cn1cc(COc2ccc(N3C(=O)c4ccccc4C3=O)cc2)nn1)Nc1ccccc1 [Compound 11a, 2-(4-((4-(1,3-dioxoisoindolin-2-yl)phenoxy)methyl)-1H-1,2,3-triazol-1-yl)-N-phenylacetamide]	218 to 220 °C	–	–	–	–
–	Cc1cccc(C)c1NC(=O)Cn1cc(COc2ccc(N3C(=O)c4ccccc4C3=O)cc2)nn1 [Compound 11c, N-(2,6-dimethylphenyl)-2-(4-((4-(1,3-dioxoisoindolin-2-yl)phenoxy)methyl)-1H-1,2,3-triazol-1-yl)acetamide]	209 to 211 °C	–	inactive	–	–
188.3 ± 0.27 µM	O=C(Cn1cc(COc2ccc(N3C(=O)c4ccccc4C3=O)cc2)nn1)Nc1cccc(F)c1 [Compound 11e, 2-(4-((4-(1,3-dioxoisoindolin-2-yl)phenoxy)methyl)-1H-1,2,3-triazol-1-yl)-N-(3-fluorophenyl)acetamide]	204 to 206 °C	–	–	–	–
112.16 ± 0.03 µM	O=C(Cn1cc(COc2ccc(N3C(=O)c4ccccc4C3=O)cc2)nn1)Nc1cccc(Cl)c1 [Compound 11f, N-(3-chlorophenyl)-2-(4-((4-(1,3-dioxoisoindolin-2-yl)phenoxy)methyl)-1H-1,2,3-triazol-1-yl)acetamide]	210 to 212 °C	–	–	–	–
284 ± 0.41 µM	O=C(Cn1cc(COc2ccc(N3C(=O)c4ccccc4C3=O)cc2)nn1)Nc1ccc(Cl)cc1Cl [Compound 11h, N-(2,4-dichlorophenyl)-2-(4-((4-(1,3-dioxoisoindolin-2-yl)phenoxy)methyl)-1H-1,2,3-triazol-1-yl)acetamide]	232 to 234 °C	–	–	–	–
46.2 ± 0.89 µM	O=C(Cn1cc(COc2ccc(N3C(=O)c4ccccc4C3=O)cc2)nn1)Nc1c(Cl)cccc1Cl [Compound 11i, N-(2,6-dichlorophenyl)-2-(4-((4-(1,3-dioxoisoindolin-2-yl)phenoxy)methyl)-1H-1,2,3-triazol-1-yl)acetamide]	202 to 204 °C	–	–	–	–
273.3 ± 0.28 µM	Cc1cc([N+](=O)[O-])ccc1NC(=O)Cn1cc(COc2ccc(N3C(=O)c4ccccc4C3=O)cc2)nn1 [Compound 11l, 2-(4-((4-(1,3-dioxoisoindolin-2-yl)phenoxy)methyl)-1H-1,2,3-triazol-1-yl)-N-(2-methyl-4-nitrophenyl)acetamide]	228 to 230 °C	–	–	–	–
685.99 ± 0.32 µM	O=C(Cn1cc(COc2ccc(N3C(=O)c4ccccc4C3=O)cc2)nn1)NCc1ccc(F)cc1 [Compound 11n, 2-(4-((4-(1,3-dioxoisoindolin-2-yl)phenoxy)methyl)-1H-1,2,3-triazol-1-yl)-N-(4-fluorobenzyl)acetamide]	204 to 206 °C	–	–	–	–

SMILES	IC50 (yeast α-glucosidase)	melting point	Fold less potent than compound 11a (yeast α-glucosidase; ratio of IC50 values)	α-glucosidase inhibitory activity in words (yeast α-glucosidase)	Inhibition mode (α-glucosidase; Lineweaver–Burk plot)	Ki (α-glucosidase; secondary re-plot of Lineweaver–Burk slopes, substrate p-nitrophenyl-a-D-glucopyranoside)
Cc1cccc(NC(=O)Cn2cc(COc3ccc(N4C(=O)c5ccccc5C4=O)cc3)nn2)c1C [Compound 11b, N-(2,3-dimethylphenyl)-2-(4-((4-(1,3-dioxoisoindolin-2-yl)phenoxy)methyl)-1H-1,2,3-triazol-1-yl)acetamide]	366.1 ± 0.86 µM	206 to 208 °C	1.8 fold	–	–	–
CCc1ccc(NC(=O)Cn2cc(COc3ccc(N4C(=O)c5ccccc5C4=O)cc3)nn2)cc1 [Compound 11d, 2-(4-((4-(1,3-dioxoisoindolin-2-yl)phenoxy)methyl)-1H-1,2,3-triazol-1-yl)-N-(4-ethylphenyl)acetamide]	491.68 ± 0.11 µM	202 to 204 °C	–	significant decrease in the inhibitory activity	–	–
O=C(Cn1cc(COc2ccc(N3C(=O)c4ccccc4C3=O)cc2)nn1)Nc1cccc(Cl)c1Cl [Compound 11g, N-(2,3-dichlorophenyl)-2-(4-((4-(1,3-dioxoisoindolin-2-yl)phenoxy)methyl)-1H-1,2,3-triazol-1-yl)acetamide]	239.1 ± 0.41 µM	203 to 205 °C	–	moderate anti-α-glucisidase activity	–	–
O=C(Cn1cc(COc2ccc(N3C(=O)c4ccccc4C3=O)cc2)nn1)Nc1ccc(Br)cc1 [Compound 11j, N-(4-bromophenyl)-2-(4-((4-(1,3-dioxoisoindolin-2-yl)phenoxy)methyl)-1H-1,2,3-triazol-1-yl)acetamide]	45.26 ± 0.03 µM	237 to 239 °C	–	moderate anti-α-glucisidase activity	competitive inhibitor	50.4 µM
O=C(Cn1cc(COc2ccc(N3C(=O)c4ccccc4C3=O)cc2)nn1)Nc1ccc([N+](=O)[O-])cc1 [Compound 11k, 2-(4-((4-(1,3-dioxoisoindolin-2-yl)phenoxy)methyl)-1H-1,2,3-triazol-1-yl)-N-(4-nitrophenyl)acetamide]	> 750 µM	260 to 262 °C	–	complete loss of inhibitory activity	–	–
O=C(Cn1cc(COc2ccc(N3C(=O)c4ccccc4C3=O)cc2)nn1)NCc1ccccc1 [Compound 11m, N-benzyl-2-(4-((4-(1,3-dioxoisoindolin-2-yl)phenoxy)methyl)-1H-1,2,3-triazol-1-yl)acetamide]	> 750 µM	201 to 203 °C	–	inactive	–	–
